biological target: SARS-CoV-2 Papain-Like Protease (PLpro) (Severe acute respiratory syndrome coronavirus 2 (2019-nCoV) (SARS-CoV-2), UniProt P0DTD1); assay: biochemical; conditions: PLpro 6.25 nM, substrate 25 μM, 60 min at 25° C.; for more potent compounds PLpro 1 nM, 120 min; read-out: PLpro IC50

Row | Molecule | IC50 [nM]
1 | COc1ccc(C)c(C(=O)N[C@H](C)c2cccc3ccccc23)c1 [Compound 136, (R)-5-Methoxy-2-methyl-N-(1-(naphthalen-1-yl)ethyl)benzamide] | 1000 to 5000

same assay, conditions: PLpro enzymatic fluorescence assay; class symbols; read-out: PLpro IC50

Row | Molecule | IC50 [nM]
2 | Cc1ccc(OC[C@@H]2CCN2C)cc1C(=O)NC1(c2cc(-c3ccc(CNC4CCCC4)s3)cc3ncccc23)CC1 [Compound 752, (S)—N-(1-(7-(5-((Cyclopentylamino)methyl)thiophen-2-yl)quinolin-5-yl)cyclopropyl)-2-methyl-5-((1-methylazetidin-2-yl)methoxy)benzamide] | < 100
3 | C=Cc1cc(C2(NC(=O)c3cc(OCC4CCN4C)ccc3C)CC2)c2ccccc2c1 (stereo not shown) [Compound 517, 2-Methyl-5-((1-methylazetidin-2-yl)methoxy)-N-(1-(3-vinylnaphthalen-1-yl)cyclopropyl)benzamide] | < 100
4 | CNCCOc1ccc(C)c(C(=O)NC2(c3cc(-c4cccs4)cc4ncccc34)CC2)c1 [Compound 630, 2-Methyl-5-(2-(methylamino)ethoxy)-N-(1-(7-(thiophen-2-yl)quinolin-5-yl)cyclopropyl)benzamide] | < 100
5 | Cc1ccc(OC[C@@H]2CCN2C)cc1C(=O)NC1(c2cc(N3CCCC3)cc3ncccc23)CC1 [Compound 683, (S)-2-Methyl-5-((1-methylazetidin-2-yl)methoxy)-N-(1-(7-(pyrrolidin-1-yl)quinolin-5-yl)cyclopropyl)benzamide] | < 100
6 | Cc1ccc(OC[C@@H]2CCN2C)cc1C(=O)NC1(c2cc(-c3ccn(C(F)F)n3)cc3ncccc23)CC1 [Compound 644, (S)-N-(1-(7-(1-(Difluoromethyl)-1H-pyrazol-3-yl)quinolin-5-yl)cyclopropyl)-2-methyl-5-((1-methylazetidin-2-yl)methoxy)benzamide] | < 100
7 | Cc1ccc(OC[C@@H]2CCN2C)cc1C(=O)NC1(c2cc(-c3ccc(F)c(Cl)c3)cc3ncccc23)CC1 [Compound 687, (S)—N-(1-(7-(3-Chloro-4-fluorophenyl)quinolin-5-yl)cyclopropyl)-2-methyl-5-((1-methylazetidin-2-yl)methoxy)benzamide] | < 100
8 | C=C(C)c1cc(C2(NC(=O)c3cc(OC[C@H](C)NC)ccc3C)CC2)c2cccnc2c1 [Compound 660, (S)-2-Methyl-5-(2-(methylamino)propoxy)-N-(1-(7-(prop-1-en-2-yl)quinolin-5-yl)cyclopropyl)benzamide] | < 100
9 | Cc1ccc(OC[C@@H]2CCN2C)cc1C(=O)NC1(c2cc(-c3ccc(CN4CCCC4)s3)cc3ncccc23)CC1 [Compound 669, (S)-2-Methyl-5-((1-methylazetidin-2-yl)methoxy)-N-(1-(7-(5-(pyrrolidin-1-ylmethyl)thiophen-2-yl)quinolin-5-yl)cyclopropyl)benzamide] | < 100
10 | Cc1ccc(OC[C@@H]2CCN2)cc1C(=O)NC1(c2cc(C3=CCCCC3)cc3ncccc23)CC1 [Compound 662, (S)-5-(Azetidin-2-ylmethoxy)-N-(1-(7-(cyclohex-1-en-1-yl)quinolin-5-yl)cyclopropyl)-2-methylbenzamide] | < 100
11 | Cc1ccc(OC[C@@H]2CCN2)cc1C(=O)NC1(c2cc(-c3ccc(=O)[nH]c3)cc3ncccc23)CC1 [Compound 674, (S)-5-(Azetidin-2-ylmethoxy)-2-methyl-N-(1-(7-(6-oxo-1,6-dihydropyridin-3-yl)quinolin-5-yl)cyclopropyl)benzamide] | < 100
12 | Cc1ccc(-c2cc(C3(NC(=O)c4cc(OC[C@@H]5CCN5C)ccc4C)CC3)c3cccnc3c2)o1 [Compound 654, (S)-2-Methyl-5-((1-methylazetidin-2-yl)methoxy)-N-(1-(7-(5-methylfuran-2-yl)quinolin-5-yl)cyclopropyl)benzamide] | < 100
13 | (S)-5-(Azetidin-2-ylmethoxy)-2-methyl-N-(1-(7-morpholinoquinolin-5-yl)cyclopropyl)benzamide [Compound 712] | < 100
14 | Cc1ccc(OCC2CCN2C)cc1C(=O)NC1(c2cc(O)cc3ncccc23)CC1 (stereo not shown) [Compound 488, N-(1-(7-Hydroxyquinolin-5-yl)cyclopropyl)-2-methyl-5-((1-methylazetidin-2-yl)methoxy)benzamide] | < 100
15 | C=C(C)c1cc(C2(NC(=O)c3cc(OC[C@@H]4CCCN4)ccc3C)CC2)c2cccnc2c1 [Compound 715, (S)-2-Methyl-N-(1-(7-(prop-1-en-2-yl)quinolin-5-yl)cyclopropyl)-5-(pyrrolidin-2-ylmethoxy)benzamide] | < 100
16 | COc1cccc(C2(NC(=O)c3cc(OCCN(C)C)ccc3C)CC2)c1 [Compound 278, 5-(2-(Dimethylamino)ethoxy)-N-(1-(3-methoxyphenyl)cyclopropyl)-2-methylbenzamide] | > 5000
17 | COCCOc1cc(C2(NC(=O)c3cc(OC[C@@H]4CCN4C)ccc3C)CC2)c2cccnc2c1 [Compound 591, (S)-N-(1-(7-(2-Methoxyethoxy)quinolin-5-yl)cyclopropyl)-2-methyl-5-((1-methylazetidin-2-yl)methoxy)benzamide] | < 100
18 | COc1cc(C2(NC(=O)c3cc(OC[C@@H]4CC[C@@H]5CN(C)CCN54)ccc3C)CC2)c2cccnc2c1 [Compound 784] | < 100
19 | COc1cc(C2(NC(=O)c3cc(OCC45CCCN4CCC5)ccc3C)CC2)c2cccnc2c1 [Compound 559, 5-((Hexahydro-1H-pyrrolizin-7a-yl)methoxy)-N-(1-(7-methoxyquinolin-5-yl)cyclopropyl)-2-methylbenzamide] | < 100

same assay, conditions: SARS-CoV-2 PLpro enzymatic fluorescence assay; read-out: PLpro IC50

Row | Molecule | IC50 [nM]
20 | Cc1ccc(OCCNCCO)cc1C(=O)NC1(c2cccc3ccccc23)CC1 [Compound 359, 5-(2-((2-Hydroxyethyl)amino)ethoxy)-2-methyl-N-(1-(naphthalen-1-yl)cyclopropyl)benzamide] | < 100
21 | COc1cc(C2(NC(=O)c3cc(OCC4CCN4C)ccc3C)CC2)c2ccccc2c1 (stereo not shown) [Compound 384, N-(1-(3-methoxynaphthalen-1-yl)cyclopropyl)-2-methyl-5-((1-methylazetidin-2-yl)methoxy)benzamide] | < 100
22 | Cc1ccc(OCC2CCN2C)cc1C(=O)NC1(c2cccc3cnc(O)cc23)CC1 (stereo not shown) [Compound 509, N-(1-(3-Hydroxyisoquinolin-5-yl)cyclopropyl)-2-methyl-5-((1-methylazetidin-2-yl)methoxy)benzamide] | 100 to 1000
23 | Cc1cc2ccn(CC3COC3)c2cc1C(=O)NC1(c2cccc3ccccc23)CC1 [Compound 295, 5-Methyl-N-(1-(naphthalen-1-yl)cyclopropyl)-1-(oxetan-3-ylmethyl)-1H-indole-6-carboxamide] | 100 to 1000
24 | Cc1ccc(OCCNS(C)(=O)=O)cc1C(=O)NC1(c2cccc3ccccc23)CC1 [Compound 424, 2-Methyl-5-(2-(methylsulfonamido)ethoxy)-N-(1-(naphthalen-1-yl)cyclopropyl)benzamide] | 100 to 1000
25 | Cc1ccc(OCC2CCN2C)cc1C(=O)NC1(c2cc(C(C)C)cc3ccccc23)CC1 (stereo not shown) [Compound 521, N-(1-(3-Isopropylnaphthalen-1-yl)cyclopropyl)-2-methyl-5-((1-methylazetidin-2-yl)methoxy)benzamide] | < 100
26 | Cc1ccc(OCC2CCCCN2C)cc1C(=O)NC1(c2cccc3ccccc23)CC1 (stereo not shown) [Compound 288, 2-Methyl-5-((1-methylpiperidin-2-yl)methoxy)-N-(1-(naphthalen-1-yl)cyclopropyl)benzamide] | 100 to 1000
27 | Cc1ccc(OC[C@H]2C[C@@H](F)CN2C)cc1C(=O)NC1(c2cccc3ccccc23)CC1 [Compound 437, 5-(((2R,4R)-4-Fluoro-1-methylpyrrolidin-2-yl)methoxy)-2-methyl-N-(1-(naphthalen-1-yl)cyclopropyl)benzamide] | < 100
28 | Cc1ccc(OCCN(C)C)cc1C(=O)NC1(c2cc(C#N)cc3ccccc23)CC1 [Compound 443, N-(1-(3-Cyanonaphthalen-1-yl)cyclopropyl)-5-(2-(dimethylamino)ethoxy)-2-methylbenzamide] | < 100
29 | Cc1ccc(N2CCC(N)CC2)cc1C(=O)NC1(c2cccc3ccccc23)CC1 [Compound 463, 5-(4-Aminopiperidin-1-yl)-2-methyl-N-(1-(naphthalen-1-yl)cyclopropyl)benzamide] | 100 to 1000
30 | Cc1ccc(OC[C@@H]2CCCN2)cc1C(=O)NC1(c2cccc3ncccc23)CC1 [Compound 380, (S)-2-Methyl-5-(pyrrolidin-2-ylmethoxy)-N-(1-(quinolin-5-yl)cyclopropyl)benzamide] | < 100
31 | Cc1ccc(N)cc1C(=O)NC(C#N)c1cccc2ccccc12 (stereo not shown) [Compound 195, 5-Amino-N-(cyano(naphthalen-1-yl)methyl)-2-methylbenzamide] | > 5000
32 | Cc1ccc(OCCN(C)C)cc1C(=O)NC1(c2cccc3cnccc23)CC1 [Compound 299, 5-(2-(Dimethylamino)ethoxy)-N-(1-(isoquinolin-5-yl)cyclopropyl)-2-methylbenzamide] | < 100
33 | CNCCc1cc2cc(C)c(C(=O)NC3(c4cccc5ccccc45)CC3)cc2[nH]1 [Compound 222, 5-Methyl-2-(2-(methylamino)ethyl)-N-(1-(naphthalen-1-yl)cyclopropyl)-1H-indole-6-carboxamide] | 100 to 1000
34 | Cc1cc2ccn(C3CN(C)C3)c2cc1C(=O)NC1(c2cccc3ccccc23)CC1 [Compound 290, 5-Methyl-1-(1-methylazetidin-3-yl)-N-(1-(naphthalen-1-yl)cyclopropyl)-1H-indole-6-carboxamide] | < 100
35 | Cc1ccc(NC2CNC2)cc1C(=O)NC1(c2cccc3ccccc23)CC1 [Compound 177, 5-(Azetidin-3-ylamino)-2-methyl-N-(1-(naphthalen-1-yl)cyclopropyl)benzamide] | 100 to 1000
36 | Cc1cnc(OCCN(C)C)cc1C(=O)NC1(c2cccc3ccccc23)CC1 [Compound 366, 2-(2-(Dimethylamino)ethoxy)-5-methyl-N-(1-(naphthalen-1-yl)cyclopropyl) isonicotinamide] | 100 to 1000
37 | Cc1ccc(N)cc1CN[C@H](C)c1cccc2ccccc12 [Compound 106, (R)-4-Methyl-3-(((1-(naphthalen-1-yl)ethyl)amino)methyl) aniline] | > 5000
